Laboratory results: BindingDB's records for patent US20230271968 (Beijing Tide Pharmaceutical, 2023)

Target: Serine/threonine-protein kinase ATR (Homo sapiens, UniProt Q13535)
Experiment: Assay of ATR Kinase Activity
Protocol: The amount of phosphorylated protein was determined by time-resolved fluorescence in this assay. The amount of phosphorylated protein was detected by anti-p53-phospho-(serine 15)-K-specific antibody (Cisbio, art. No.: 61GSTDLA) and d2 labeled anti-GST antibody (Cisbio, art. No. 61P08KAE). […] The reagents used above were purchased from Sigma or Invitrogen, except for those whose manufacturers were mentioned.

Serine/threonine-protein kinase ATR, sequence (Q13535 whole entry): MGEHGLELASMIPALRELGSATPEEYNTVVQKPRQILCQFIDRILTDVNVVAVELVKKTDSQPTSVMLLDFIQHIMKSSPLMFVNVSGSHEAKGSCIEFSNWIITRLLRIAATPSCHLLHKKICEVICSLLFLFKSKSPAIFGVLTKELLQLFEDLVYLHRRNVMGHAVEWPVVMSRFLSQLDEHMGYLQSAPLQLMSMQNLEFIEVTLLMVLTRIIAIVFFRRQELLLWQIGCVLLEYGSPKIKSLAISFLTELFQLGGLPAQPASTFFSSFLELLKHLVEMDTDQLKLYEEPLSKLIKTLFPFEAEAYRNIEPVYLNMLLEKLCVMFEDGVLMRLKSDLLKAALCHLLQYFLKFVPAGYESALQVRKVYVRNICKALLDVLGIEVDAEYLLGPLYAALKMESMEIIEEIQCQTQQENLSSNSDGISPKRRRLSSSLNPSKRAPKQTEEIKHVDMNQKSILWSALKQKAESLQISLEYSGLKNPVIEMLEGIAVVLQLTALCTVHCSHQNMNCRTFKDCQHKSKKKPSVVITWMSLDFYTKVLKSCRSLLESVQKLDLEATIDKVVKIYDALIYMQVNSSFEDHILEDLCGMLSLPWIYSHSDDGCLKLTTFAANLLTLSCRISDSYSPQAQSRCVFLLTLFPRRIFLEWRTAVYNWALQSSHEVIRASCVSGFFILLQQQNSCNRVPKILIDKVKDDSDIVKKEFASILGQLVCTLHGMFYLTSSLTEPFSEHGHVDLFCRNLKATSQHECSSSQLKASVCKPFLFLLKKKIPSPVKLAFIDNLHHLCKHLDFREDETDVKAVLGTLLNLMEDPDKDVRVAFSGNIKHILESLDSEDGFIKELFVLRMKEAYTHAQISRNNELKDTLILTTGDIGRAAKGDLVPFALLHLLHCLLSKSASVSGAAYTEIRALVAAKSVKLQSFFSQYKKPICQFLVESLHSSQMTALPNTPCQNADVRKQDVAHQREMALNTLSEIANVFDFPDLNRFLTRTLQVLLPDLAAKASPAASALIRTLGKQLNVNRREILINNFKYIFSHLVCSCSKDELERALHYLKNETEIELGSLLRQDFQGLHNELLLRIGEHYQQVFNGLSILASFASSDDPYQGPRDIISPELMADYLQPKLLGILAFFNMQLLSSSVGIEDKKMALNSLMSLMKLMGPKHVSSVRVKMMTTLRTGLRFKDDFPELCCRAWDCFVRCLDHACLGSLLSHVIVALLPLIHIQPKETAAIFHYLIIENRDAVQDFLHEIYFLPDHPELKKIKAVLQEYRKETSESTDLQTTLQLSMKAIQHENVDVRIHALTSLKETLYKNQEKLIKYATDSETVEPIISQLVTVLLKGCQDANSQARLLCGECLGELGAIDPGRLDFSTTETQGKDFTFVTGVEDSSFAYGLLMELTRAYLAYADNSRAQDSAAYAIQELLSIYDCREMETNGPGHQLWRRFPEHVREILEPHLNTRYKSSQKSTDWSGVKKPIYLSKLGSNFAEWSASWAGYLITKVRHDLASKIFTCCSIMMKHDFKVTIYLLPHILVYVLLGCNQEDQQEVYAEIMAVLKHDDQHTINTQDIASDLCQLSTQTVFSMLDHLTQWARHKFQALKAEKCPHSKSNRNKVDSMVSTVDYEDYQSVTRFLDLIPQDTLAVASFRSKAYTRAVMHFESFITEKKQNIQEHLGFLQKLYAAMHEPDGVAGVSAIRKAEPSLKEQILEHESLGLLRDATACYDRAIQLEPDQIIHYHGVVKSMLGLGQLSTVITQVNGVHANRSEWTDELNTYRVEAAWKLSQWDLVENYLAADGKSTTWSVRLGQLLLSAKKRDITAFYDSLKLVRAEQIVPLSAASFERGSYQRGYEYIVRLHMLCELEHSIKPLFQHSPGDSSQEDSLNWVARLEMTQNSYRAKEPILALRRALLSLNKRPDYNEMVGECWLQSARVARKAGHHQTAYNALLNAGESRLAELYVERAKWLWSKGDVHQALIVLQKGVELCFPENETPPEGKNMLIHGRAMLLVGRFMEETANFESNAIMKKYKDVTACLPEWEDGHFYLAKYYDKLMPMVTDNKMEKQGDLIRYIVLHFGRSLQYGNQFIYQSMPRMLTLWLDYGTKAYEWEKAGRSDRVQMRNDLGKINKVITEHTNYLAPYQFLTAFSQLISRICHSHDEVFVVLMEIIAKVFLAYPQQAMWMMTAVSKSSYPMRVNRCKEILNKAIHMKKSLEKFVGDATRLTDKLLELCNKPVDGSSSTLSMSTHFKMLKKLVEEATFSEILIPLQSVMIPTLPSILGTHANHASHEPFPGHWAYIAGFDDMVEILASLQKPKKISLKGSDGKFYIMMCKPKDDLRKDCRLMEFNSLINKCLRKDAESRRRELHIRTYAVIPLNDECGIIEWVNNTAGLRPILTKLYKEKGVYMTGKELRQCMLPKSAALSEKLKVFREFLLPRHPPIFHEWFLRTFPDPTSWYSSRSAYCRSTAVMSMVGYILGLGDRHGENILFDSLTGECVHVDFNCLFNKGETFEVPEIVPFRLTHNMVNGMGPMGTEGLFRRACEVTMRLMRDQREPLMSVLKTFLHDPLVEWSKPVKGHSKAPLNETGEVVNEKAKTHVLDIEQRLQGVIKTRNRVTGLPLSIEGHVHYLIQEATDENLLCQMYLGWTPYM

## Cc1nn(-c2cncc(C#N)c2)c(C)c1-c1cc(N2CCOC[C@H]2C)nc2c(-c3ccn[nH]3)cnn12 [US20230271968, Compound A11]
  IC50: 9 nM
